{"source": "paper PMC10180078", "about": "“In Silico and In Vitro Assessment of Carbonyl Reductase 1 Inhibition Using ASP9521—A Potent Aldo-Keto Reductase 1C3 Inhibitor with the Potential to Support Anticancer Therapy Using Anthracycline Antibiotics” (Molecules, 2023)", "biological_target": "T1, carbonyl reductase 1 (CBR1) (Homo sapiens, UniProt P16152)", "T1 construct": "human recombinant CBR1 expressed in Escherichia coli Rosetta (DE3)", "T1 sequence (P16152 2-277)": "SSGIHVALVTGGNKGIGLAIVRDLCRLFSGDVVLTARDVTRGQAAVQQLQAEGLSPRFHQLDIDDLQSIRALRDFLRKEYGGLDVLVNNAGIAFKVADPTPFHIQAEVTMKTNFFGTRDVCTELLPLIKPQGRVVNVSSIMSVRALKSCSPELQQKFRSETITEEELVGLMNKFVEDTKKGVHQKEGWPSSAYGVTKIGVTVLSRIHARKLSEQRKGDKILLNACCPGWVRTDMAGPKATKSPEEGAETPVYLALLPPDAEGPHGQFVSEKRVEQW", "experiment": "recombinant CBR1 inhibition, menadione substrate, NADPH oxidation monitored at […] nm", "assay_type": "biochemical"}
{"molecule": "COc1ccc2[nH]c(C(=O)N3CCC(CC(C)(C)O)CC3)cc2c1", "note": "[ASP9521]", "values": [{"measurement": "IC50", "value": 44, "unit": "µM"}]}
